Columns and labels:
[1] = biological target: Carbonic anhydrase 1 (Homo sapiens, UniProt P00915); assay: Inhibition of human recombinant carbonic anhydrase 1 preincubated for 15 mins by stopped flow CO2 hydration assay
[2] = biological target: Carbonic anhydrase 2 (Homo sapiens, UniProt P00918); assay: Inhibition of human recombinant carbonic anhydrase 2 preincubated for 15 mins by stopped flow CO2 hydration assay
[3] = biological target: Carbonic anhydrase 9 (Homo sapiens, UniProt Q16790)
[4] = biological target: Carbonic anhydrase 12 (Homo sapiens, UniProt O43570); assay: Inhibition of human recombinant carbonic anhydrase 12 preincubated for 15 mins by stopped flow CO2 hydration assay
Sequence of Carbonic anhydrase 12 (O43570 whole entry): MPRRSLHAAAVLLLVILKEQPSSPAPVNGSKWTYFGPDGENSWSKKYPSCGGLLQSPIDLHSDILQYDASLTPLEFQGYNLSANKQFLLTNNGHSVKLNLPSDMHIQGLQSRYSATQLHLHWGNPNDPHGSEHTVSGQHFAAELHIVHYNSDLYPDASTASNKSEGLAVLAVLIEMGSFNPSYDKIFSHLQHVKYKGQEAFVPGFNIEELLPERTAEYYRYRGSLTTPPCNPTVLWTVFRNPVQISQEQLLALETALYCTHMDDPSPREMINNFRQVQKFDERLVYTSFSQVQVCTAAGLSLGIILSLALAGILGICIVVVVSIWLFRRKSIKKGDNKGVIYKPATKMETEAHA

Sequence of Carbonic anhydrase 1 (P00915 whole entry): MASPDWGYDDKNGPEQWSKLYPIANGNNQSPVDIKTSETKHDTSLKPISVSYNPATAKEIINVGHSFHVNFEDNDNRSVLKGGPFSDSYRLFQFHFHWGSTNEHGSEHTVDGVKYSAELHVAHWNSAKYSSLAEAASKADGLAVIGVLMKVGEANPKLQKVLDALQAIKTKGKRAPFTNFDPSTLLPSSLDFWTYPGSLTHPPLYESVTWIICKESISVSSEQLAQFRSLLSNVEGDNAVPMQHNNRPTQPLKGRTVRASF

Row | Compound | Ki [1] [µM] | Ki [2] [µM] | Ki [3] [µM] | Ki [4] [µM]
1 | CC1=CC(=O)N(Cc2ccc(Cl)cc2)S(=O)(=O)O1 | > 10 | > 10 | 0.239 | 0.0045
2 | CC1=CC(=O)N(Cc2ccc([N+](=O)[O-])cc2)S(=O)(=O)O1 | > 10 | > 10 | 0.21 | 0.0043
3 | O=C(O)CN1C(=O)c2ccccc2C1=O | > 10 | > 10 | 0.223 | 0.0043
4 | O=C1c2ccccc2S(=O)(=O)N1Cc1ccccc1C(F)(F)F | – | > 10 | 0.616 | 0.015
5 | Cc1cccc(CN2C(=O)c3ccccc3S2(=O)=O)c1 | – | > 10 | 0.184 | 0.026
6 | O=C1c2ccccc2S(=O)(=O)N1Cc1ccc([N+](=O)[O-])cc1 | – | > 10 | 1.17 | 0.029
7 | O=C1c2ccccc2S(=O)(=O)N1Cc1ccc(C(F)(F)F)cc1 | – | > 10 | 0.051 | 0.0047
8 | CC1=CC(=O)N(CC(=O)c2ccc([N+](=O)[O-])cc2)S(=O)(=O)O1 | – | 1.75 | 2.48 | 0.0039
9 | CC1=CC(=O)N(CC(=O)c2ccc(-c3ccccc3)cc2)S(=O)(=O)O1 | > 10 | > 10 | 0.026 | 0.004
10 | O=C1c2ccccc2S(=O)(=O)N1Cc1ccc(Cl)cc1 | – | > 10 | 0.019 | 0.0044
11 | CC1=CC(=O)N(Cc2ccc(F)cc2)S(=O)(=O)O1 | > 10 | > 10 | 0.261 | 0.0049
12 | CC1=CC(OCC(=O)c2ccc(Cl)cc2Cl)=NS(=O)(=O)O1 | > 10 | > 10 | 0.265 | 0.0055
13 | O=C(O)CN1C(=O)c2ccccc2S1(=O)=O | 110 | 78 | – | –
14 | O=C(CN1C(=O)c2ccccc2S1(=O)=O)c1ccc(F)cc1 | 1.11 | > 10 | 0.023 | 0.041
15 | O=C1c2ccccc2S(=O)(=O)N1Cc1ccc(F)cc1 | – | > 10 | 0.539 | 0.041
16 | CC1=CC(OCC(=O)c2ccc(Br)cc2)=NS(=O)(=O)O1 | – | > 10 | 0.196 | 0.0036
17 | Cc1ccccc1CN1C(=O)c2ccccc2S1(=O)=O | 1.37 | > 10 | 0.221 | 0.016
18 | COc1cccc(C(=O)CN2C(=O)C=C(C)OS2(=O)=O)c1 | > 10 | > 10 | – | 0.0056
19 | O=C1NCc2ccccc21 | > 10 | > 10 | 0.174 | 0.0041
20 | Cc1ccc(CN2C(=O)c3ccccc3S2(=O)=O)cc1 | > 10 | > 10 | 0.234 | 0.0051
21 | O=C1c2ccccc2S(=O)(=O)N1Cc1ccc(Br)cc1 | > 10 | > 10 | 0.022 | 0.0043
22 | COc1cccc(C(=O)CN2C(=O)c3ccccc3S2(=O)=O)c1 | – | > 10 | 1.57 | 0.006
23 | O=C1c2ccccc2S(=O)(=O)N1Cc1cccc(C(F)(F)F)c1 | > 10 | > 10 | 0.019 | 0.017
24 | CC1=CC(=O)N(CC(=O)c2ccc(C#N)cc2)S(=O)(=O)O1 | – | 0.14 | 0.027 | 0.0041
25 | O=C1c2ccccc2S(=O)(=O)N1Sc1ccccc1[N+](=O)[O-] | > 10 | > 10 | 0.018 | 0.004
26 | O=C(CN1C(=O)c2ccccc2S1(=O)=O)c1ccc(Cl)cc1Cl | 1.48 | > 10 | 0.191 | 0.0039
